tested on: HSV-1; assay: HSV-1 replication in infected Vero 76 cells, viral DNA hybridization capture assay; format: cell-based; settings: Human alphaherpesvirus 1, Vero 76, HSV-1, Vero 76 cells, MOI=0.001, 40–48 hours incubation
Protocol: Vero 76 cells were maintained in MEM with Earle's salts, L-glutamine, 8% FBS (Hyclone, A-1111-L) and 100 units/mL Penicillin-100 μg/mL Streptomycin. For assay conditions, FBS was reduced to 2%. Cells are seeded into 96-well tissue culture plates at a density of 5×10^4 cells/well after being incubated for 45 min at 37° C. in the presence of HSV-1 or HSV-2 (MOI=0.001). Test compounds are added to the wells and the plates are incubated at 37° C. for 40–48 hours. Cell lysates are prepared as follows: media was removed and replaced with 150 μL/well 0.2 N NaOH with 1% Igepal CA 630 or NP-40. Plates were incubated up to 14 days at room temperature in a humidified chamber to prevent evaporation. • (b) Preparation of Detection DNA.
For the detection probe, a gel-purified, digoxigenin-labeled, […] PCR fragment of the HSV UL-15 sequence was utilized. PCR conditions included 0.5 μM primers, 180 μM dTP, 20 μM dUTP-digoxigenin (Boehringer Mannheim 1558706), 200 μM each of dATP, dCTP, and dGTP, 1×PCR Buffer II (Perkin Elmer), 2.5 mM MgCl2, 0.025 units/μL of AmpliTaq Gold polymerase (Perkin Elmer), and 5 ng of gel-purified HSV DNA per 100 μL. Extension conditions were 10 min at 95° C., followed by 30 cycles of 95° C. for 1 min, 55° C. for 30 sec, and 72° C. for 2 min. The amplification was completed with a 10-min incubation at 72° C. Primers were selected to amplify a 728 bp probe spanning a section of the HSV1 UL15 open reading frame (nucleotides 249–977). Single-stranded transcripts were purified with Promega M13 Wizard kits. The final product was mixed 1:1 with a mixture of 6 M GuSCN, 100 mM EDTA and 200 μg/mL herring sperm DNA and stored at 4° C. • (c) Preparation of Capture Plates.
The capture DNA plasmid (HSV UL13 region in pUC) was linearized by cutting with Xba I, denatured for 15 min at 95° C. and diluted immediately into Reacti-Bind DNA Coating Solution (Pierce, 17250, diluted 1:1 with TE buffer, pH 8) at 1 ng/μL 75 μL/well were added to Corning (#3922 or 9690) white 96-well plates and incubated at room temperature for at least 4 hrs before washing twice with 300 μL/well 0.2×SSC/0.05% Tween-20 (SSC/T buffer). The plates were then incubated overnight at room temperature with 150 μL/well 0.2 N NaOH, 1% IGEPAL and 10 μg/mL herring sperm DNA. • (d) Hybridization.
Twenty-seven (27) μL of cell lysate was combined with 45 μL of hybridization solution (final concentration: 3M GuSCN, 50 mM EDTA, 100 μg/ml salmon sperm DNA, 5× Denhardt's solution, 0.25×APE, and 5 ng of the digoxigenin-labeled detection probe). APE is 1.5 M NH4-acetate, 0.15 M ammonium phosphate, and 5 mM EDTA adjusted to pH 6.0. Mineral oil (50 μL) was added to prevent evaporation. The hybridization plates were incubated at 95° C. for 10 minutes to denature the DNA, then incubated at 42° C. overnight. The wells were washed 6× with 300 μL/well SSC/T buffer then incubated with 75 μL/well anti-digoxigenin-HRP-conjugated antibody (Boehringer Mannheim 1207733, 1:5000 in TE) for 30 min at room temperature. The wells were washed 6× with 300 μL/well with PBS/0.05% Tween-20 before 75 μL/well SuperSignal LBA substrate (Pierce) was added. The plates were incubated at room temperature for 30 minutes and chemiluminescence was measured in a Wallac Victor reader. • e) Results.
The following results were obtained for HSV-1.

Row | SMILES | IC50 [nM]
1 | O=C(O)c1cc(-c2c(-c3ccc(F)cc3)nn3c(Cl)cccc23)nc(NC2CCCC2)n1 [Example 27, 6-[7-Chloro-2-(4-fluorophenyl)pyrazolo[1,5-α]pyridin-3-yl]-2-(cyclopentylamino)-4-pyrimidinecarboxylic acid] | 1300
2 | Fc1ccc(-c2nn3c(NC4CCCC4)cccc3c2-c2ccncc2)cc1 [Example 28, N-cyclopentyl-2-(4-fluorophenyl)-3-(4-pyridinyl)pyrazolo[1,5-α]pyridin-7-amine] | 2000
3 | NNc1cc(-c2c(-c3ccc(F)cc3)nn3c(NC4CCCC4)cccc23)ccn1 [Example 30, N-Cyclopentyl-2-(4-fluorophenyl)-3-(2-hydrazino-4-pyridinyl)pyrazolo[1,5-α]pyridin-7-amine] | 5000
4 | CN(C)c1nccc(-c2c(-c3ccc(F)cc3)nn3c(N4CCCC4)cccc23)n1 [Example 32, 4-[2-(4-Fluorophenyl)-7-(1-pyrrolidinyl)pyrazolo[1,5-α]pyridin-3-yl]-N,N-dimethyl-2-pyrimidinamine] | 5000
5 | CCCCNc1cccc2c(-c3ccnc([S+](C)[O-])n3)c(-c3ccc(F)cc3)nn12 (stereo not drawn) [Example 37, N-Butyl-2-(4-fluorophenyl)-3-[2-(methylsulfinyl)-4-pyrimidinyl]-pyrazolo[1,5-α]pyridin-7-amine] | 15000
6 | CCCCNc1cccc2c(-c3ccnc(NCCCO)n3)c(-c3ccc(F)cc3)nn12 [Example 38, 3-({4-[7-(Butylamino)-2-(4-fluorophenyl)pyrazolo[1,5-α]pyridin-3-yl]-2-pyrimidinyl}amino)-1-propanol] | 5000
7 | CCCCNc1cccc2c(-c3ccnc(N4CCOCC4)n3)c(-c3ccc(F)cc3)nn12 [Example 40, N-Butyl-2-(4-fluorophenyl)-3-[2-(4-morpholinyl)-4-pyrimidinyl]pyrazolo[1,5-α]pyridin-7-amine] | 15000
8 | CCCCNc1cccc2c(-c3ccnc(N4CCN(CCO)CC4)n3)c(-c3ccc(F)cc3)nn12 [Example 41, 2-(4-{4-[7-(Butylamino)-2-(4-fluorophenyl)pyrazolo[1,5-α]pyridin-3-yl]-2-pyrimidinyl}-1-piperazinyl)ethanol] | 6000
9 | CCCCNc1cccc2c(-c3ccnc(N4CCN(CCOC)CC4)n3)c(-c3ccc(F)cc3)nn12 [Example 42, N-Butyl-2-(4-fluorophenyl)-3-{2-[4-(2-methoxyethyl)-1-piperazinyl]-4-pyrimidinyl}pyrazolo[1,5-α]pyridin-7-amine] | 10000
10 | CCCCNc1cccc2c(-c3ccnc(NCc4ccccn4)n3)c(-c3ccc(F)cc3)nn12 [Example 43, N-Butyl-2-(4-fluorophenyl)-3-{2-[(2-pyridinylmethyl)amino]-4-pyrimidinyl}pyrazolo[1,5-α]pyridin-7-amine] | 3000
11 | CCCCNc1cccc2c(-c3ccnc(NCCCn4ccnc4)n3)c(-c3ccc(F)cc3)nn12 [Example 44, N-Butyl-2-(4-fluorophenyl)-3-(2-{[3-(1H-imidazol-1-yl)propyl]amino}-4-pyrimidinyl)pyrazolo[1,5-α]pyridin-7-amine] | 4000
12 | CCCCNc1cccc2c(-c3ccnc(NCCN4CCOCC4)n3)c(-c3ccc(F)cc3)nn12 [Example 45, N-Butyl-2-(4-fluorophenyl)-3-(2-{[2-(4-morpholinyl)ethyl]amino}-4-pyrimidinyl)pyrazolo[1,5-α]pyridin-7-amine] | 5000
13 | CCCCNc1cccc2c(-c3ccnc(OCCN4CCOCC4)n3)c(-c3ccc(F)cc3)nn12 [Example 46, N-Butyl-2-(4-fluorophenyl)-3-{2-[2-(4-morpholinyl)ethoxy]-4-pyrimidinyl}pyrazolo[1,5-α]pyridin-7-amine] | 7000
14 | CCCCNc1nccc(-c2c(-c3ccc(F)cc3)nn3c(NC)cccc23)n1 [Example 49, 3-[2-(Butylamino)-4-pyrimidinyl]-2-(4-fluorophenyl)-N-methylpyrazolo[1,5-α]pyridin-7-amine] | 1200
15 | CN(C)Cc1cc(-c2c(-c3ccc(F)cc3)nn3c(NC4CCCC4)cccc23)nc(NC2CCCC2)n1 [Example 51, N-Cyclopentyl-3-{2-(cyclopentylamino)-6-[(dimethylamino)methyl]-4-pyrimidinyl}-2-(4-fluorophenyl)pyrazolo[1,5-α]pyridin-7-amine] | 5000
16 | Cc1cnc(NC2CCCC2)nc1-c1c(-c2ccc(F)cc2)nn2c(NC3CCCC3)cccc12 [Example 53, N-Cyclopentyl-3-[2-(cyclopentylamino)-5-methyl-4-pyrimidinyl]-2-(4-fluorophenyl)pyrazolo[1,5-α]pyridin-7-amine] | 1000

The remaining compounds from weak to strong by IC50, led by results:

Row | IC50 [nM] | SMILES
17 | 1000 | Fc1ccc(-c2nn3c(N4CCCC4)cccc3c2-c2ccnc(NC3CCCC3)n2)cc1 [Example 31, N-Cyclopentyl-4-[2-(4-fluorophenyl)-7-(1-pyrrolidinyl)pyrazolo[1,5-α]pyridin-3-yl]-2-pyrimidinamine]
18 | 1000 | C=CCNc1nccc(-c2c(-c3ccc(F)cc3)nn3c(NCCCC)cccc23)n1 [Example 39, 3-[2-(Allylamino)-4-pyrimidinyl]-N-butyl-2-(4-fluorophenyl)pyrazolo-[1,5-α]pyridin-7-amine]
19 | 900 | CCCCNc1nccc(-c2c(-c3ccc(F)cc3)nn3c(N4CCN(C)CC4)cccc23)n1 [Example 35, N-Butyl-4-[2-(4-fluorophenyl)-7-(4-methyl-1-piperazinyl)pyrazolo[1,5-α]pyridin-3-yl]-2-pyrimidinamine]
20 | 800 | CCCCNc1nccc(-c2c(-c3ccc(F)cc3)nn3c(N4CCOCC4)cccc23)n1 [Example 36, N-Butyl-4-[2-(4-fluorophenyl)-7-(4-morpholinyl)pyrazolo[1,5-α]pyridin-3-yl]-2-pyrimidinamine]
21 | 500 | C=CCNc1cccc2c(-c3ccnc(NCCCC)n3)c(-c3ccc(F)cc3)nn12 [Example 54, N-Allyl-3-[2-(butylamino)-4-pyrimidinyl]-2-(4-fluorophenyl)pyrazolo[1,5-α]pyridin-7-amine]
22 | 400 | CCCCNc1nccc(-c2c(-c3ccc(F)cc3)nn3c(NCCN4CCOCC4)cccc23)n1 [Example 47, 3-[2-(Butylamino)-4-pyrimidinyl]-2-(4-fluorophenyl)-N-[2-(4-morpholinyl)ethyl]pyrazolo[1,5-α]pyridin-7-amine]
23 | 300 | Fc1ccc(-c2nn3c(NC4CCCC4)cccc3c2-c2ccnc(NC3CCCC3)c2)cc1 [Example 29, N-Cyclopentyl-3-[2-(cyclopentylamino)-4-pyridinyl]-2-(4-fluorophenyl)pyrazolo[1,5-α]pyridin-7-amine]
24 | 300 | CCCCNc1nccc(-c2c(-c3ccc(F)cc3)nn3c(N(C)C)cccc23)n1 [Example 34, 3-[2-(Butylamino)-4-pyrimidinyl]-2-(4-fluorophenyl)-N,N-dimethylpyrazolo[1,5-α]pyridin-7-amine]
25 | 300 | CCCCNc1nccc(-c2c(-c3ccc(F)cc3)nn3c(NCCOC)cccc23)n1 [Example 48, 3-[2-(Butylamino)-4-pyrimidinyl]-2-(4-fluorophenyl)-N-(2-methoxyethyl)pyrazolo[1,5-α]pyridin-7-amine]
26 | 200 | CCCCNc1nccc(-c2c(-c3ccc(F)cc3)nn3c(NC4CC4)cccc23)n1 [Example 33, 3-[2-(Butylamino)-4-pyrimidinyl]-N-cyclopropyl-2-(4-fluorophenyl)pyrazolo[1,5-α]pyridin-7-amine]
